Test system: human dermal fibroblast
Assay: Fibroblast proliferation by MTT assay
Format: cell-based
Details: mitomycin c 10 or 25 μg/ml for 30 or 60 min; MTT at 17 hrs
Protocol: The results from two different studies investigating the effect of mitomycin c on human dermal fibroblast proliferation are shown in FIGS. 5A-5B. Fibroblast cells were plated out in complete media and then treated with mitomycin c (10 μg/ml or 25 μg/ml) for 30 or 60 min. Mitomcyin c was washed out and starvation media was added. Positive controls are 10% FBS and FGF (25 ng/ml). The ODs from the blank wells were subtracted out. Proliferation was measured by MTT assay at 17 hrs.

CO[C@@]12[C@H](COC(N)=O)C3=C(C(=O)C(C)=C(N)C3=O)N1C[C@@H]1N[C@@H]12 [Mitomycin c, mitomycin c]
fibroblast proliferation (MTT): appears to inhibit fibroblast proliferation
